How the values were obtained:
U251MG (glioblastoma) = test: WST-1 cell viability assay, 48-h incubation; assay type: cell-based, human; conditions: WST-1, 48 h, vs. vehicle, even at 3 µM in some (unnamed) cell lines
Procedure: To test the biological activity of the thia-analogous indirubin N-glycosides that are the focus of the present work, the effects of KD87 and KD85 and their non-glycosylated parent compound KD88 on the viability of various tumor cell lines were initially investigated. The corresponding analyses were performed using the cell lines A375 (melanoma), A431 (skin squamous cell carcinoma), A549 (non-small cell lung carcinoma), U251MG (glioblastoma), and U138MG (glioblastoma).
Figure 2 Effect of increasing concentrations of KD87 (A), KD85 (B), and KD88 (C) on viability of various cancer cells. A375 (melanoma; black columns), A431 (skin squamous cell carcinoma; dark grey columns), A549 (non-small cell lung carcinoma; grey columns), U251MG (glioblastoma; light grey columns), or U138MG (glioblastoma; white columns) were incubated for 48 h with the appropriate compounds or vehicle followed by determination of cell viability by WST-1 assay. Percent control represents comparison with vehicle-treated cells (100%) in the absence of test substance. Values are mean ± standard error of the mean (SEM) of n = 15 in all panels, except n = 14 for A375 and A431 cells in panel B and n = 14–15 for A375 cells in panel C, from four (A375, A431) or five (A549, U251MG, U138MG) independent experiments. * p ≤ 0.05, ** p ≤ 0.01, *** p ≤ 0.001, **** p ≤ 0.0001 vs. vehicle control; one-way ANOVA with Dunnett’s post hoc test.
The human melanoma cell line A375 (#300110; RRID:CVCL_0132) as well as the human skin epidermoid carcinoma cell line A431 (#300112; RRID:CVCL_0037) were purchased from CLS Cell Lines Service GmbH (Eppelheim, Germany). The human glioblastoma cell line U251MG (#09063001; RRID:CVCL_0021) was from Sigma-Aldrich Corporation. The human glioblastoma cell line U138MG (#ACC 291; RRID: CVCL_0020) and the human lung carcinoma cell line A549 (#ACC 107, RRID:CVCL_0023) were purchased from DSMZ (Deutsche Sammlung von Mikroorganismen und Zellkulturen GmbH, Braunschweig, Germany).
Cells were cultured in high-glucose DMEM (with GlutaMAX™-I: A375, A431; with UltraGlutamine^TM I: A549, U251MG, U138MG) supplemented with 10% heat-inactivated FBS, 100 U/mL penicillin, and 100 μg/mL streptomycin and grown in a humidified incubator at 37 °C and 5% CO2. For viability analyses, cells were seeded in 96-well plates at a density of 5000 cells per well in DMEM containing 10% heat-inactivated FBS and cultured for 24 h. All cell experiments with the specific substances were performed in serum-free DMEM supplemented with 100 U/mL penicillin and 100 μg/mL streptomycin, applied after washing the cells with DPBS. The test substances were dissolved in DMSO. The final concentration of DMSO in the incubation media of test substance- and vehicle-treated cells was 1% (v/v).
After completion of the 48-h incubation, WST-1 reagent (Sigma, Taufkirchen, Germany) was added to the cells to achieve a final dilution of 1:10, and the cells were incubated for an additional 20 min before absorbance was measured at 450 nm, reference wavelength […], using a microplate reader.

[1] = Storage stability in DMEM, LC-MS/MS after DMEM extraction; assay type: physicochemical; conditions: for Stability 4 °C / Stability AS (autosampler) / Stability −20 °C / Stability BT (benchtop): 24 h; for Stability FT (freeze-thaw): freeze-thaw cycles; for Stability −80 °C 91 d: long-term freezing; for Stability BT (benchtop): room temperature
Procedure: To assess stability, low and high concentrations of all analytes were subjected to different storage conditions. […] For determination of long-term stability, samples were stored in either plasma or DMEM at –80 °C for 90 and 91 days, respectively. To measure short-term stability, samples were stored at room temperature, in an autosampler, at 4 °C, and at –20 °C for 24 h. In addition, freeze-thaw cycles were performed according to FDA guidance for the standard solutions. For comparison, at least three freshly prepared samples were prepared for each concentration level. With the exception of autosampler stability, the internal standard was always added to all samples before sample processing was started.
Regarding the medium, validation procedures were performed with high-glucose DMEM supplemented with 100 U/mL penicillin and 100 μg/mL streptomycin, but not with FBS. With the exception of selectivity, where both media (GlutaMAX™-I or UltraGlutamine^TM I supplement) were tested, only Gibco™ DMEM with GlutaMAX™-I was used for all other analytical procedures.
Liquid-liquid extraction was performed identically for plasma and DMEM samples. After addition of the 1.0 µM internal standard, 50 µL of 0.8 M alkaline carbonate buffer was added. The extraction was performed once with 890 µL ethyl acetate. Tubes were then shaken for 10 min at 1400 rpm using a Thermomixer 5436 (Eppendorf AG, Hamburg, Germany) followed by centrifugation for 5 min at 14,000 rpm using a Centrifuge 5415 C (Eppendorf AG, Hamburg, Germany). Subsequently, 850 µL of the supernatant was transferred to a new tube and evaporated to dryness for 35 min at 35 °C (8 min heating time) using a SpeedVac SPD130DLX (Thermo Fisher Scientific, Asheville, NC, USA). Reconstitution was performed with 200 µL of a acetonitrile/water/H2SO4 [3/0.5/0.5] mixture, shaken at 1400 rpm for 5 min, and centrifuged again at 14,000 rpm for 5 min. Finally, 155 µL of the sample was transferred to an LC vial and analyzed.
To assess stability, low and high concentrations of all analytes were exposed to different storage conditions. To determine long-term stability, samples were stored in either plasma or DMEM at −80 °C for 90 and 91 days, respectively. To determine short-term stability, samples were stored for 24 h on the bench at room temperature, in the autosampler, at 4 °C, and at −20 °C. In addition, freeze-thaw cycles were performed for the standard solutions according to FDA guidance. At least three freshly prepared samples per concentration level were prepared for comparison. With the exception of the stability test in the autosampler, the internal standard was always added to all samples before sample processing was started. However, to avoid concentration fluctuations due to possible degradation of the analytes, stock solutions were prepared twice a week and stored at −20 °C. Each storage condition was examined in the dark. For all conditions studied, n = 3–6 replicates were prepared.

Row | Stability 4 °C ([1]; 3.0 nM) | Stability AS (autosampler) ([1]; 3.0 nM) | Stability −20 °C ([1]; 3.0 nM) | Stability FT (freeze-thaw) ([1]; 3.0 nM) | Stability −80 °C 91 d ([1]; 3.0 nM) | Stability BT (benchtop) ([1]; 3.0 nM) | Stability 4 °C ([1]; 40 nM) | Stability AS (autosampler) ([1]; 40 nM) | Stability −20 °C ([1]; 40 nM) | Stability FT (freeze-thaw) ([1]; 40 nM) | Stability −80 °C 91 d ([1]; 40 nM) | Stability BT (benchtop) ([1]; 40 nM) | SMILES | concentration from which significant cytotoxic effects start (U251MG (glioblastoma))
1 | 98.3 ± 2.2% | 75.6 ± 5.8% | 86.8 ± 1.8% | 99.4 ± 4.0% | 93.2 ± 6.9% | 115.3 ± 1.8% | 80.5 ± 1.8% | 71.6 ± 1.9% | 81.9 ± 3.9% | 99.9 ± 3.3% | 92.7 ± 5.7% | 100.5 ± 1.9% | O=C1/C(=C2/C(=O)N([C@@H]3O[C@H](CO)[C@@H](O)[C@H](O)[C@@H]3O)c3ccccc32)Sc2ccccc21 [KD85, 3-[3′-oxo-benzo[b]thiophene-2′-(Z)-ylidene]-1-(β-D-mannopyranosyl)-oxindole] | ≤ 6 µM
2 | 81.4 ± 3.3% | 101.2 ± 7.4% | 87.7 ± 3.2% | 98.3 ± 5.4% | 97.8 ± 6.0% | 104.9 ± 4.0% | 84.5 ± 2.1% | 81.7 ± 3.7% | 84.2 ± 2.6% | 101.9 ± 5.4% | 92.3 ± 7.8% | 98.3 ± 1.1% | O=C1/C(=C2/C(=O)N([C@@H]3O[C@H](CO)[C@@H](O)[C@H](O)[C@H]3O)c3ccccc32)Sc2ccccc21 [KD87, 3-[3′-oxo-benzo[b]thiophen-2′-(Z)-ylidene]-1-(β-D-glucopyranosyl)-oxindole] | ≤ 6 µM

— PMC9101087, “A Sensitive LC-MS/MS Method for the Simultaneous Determination of Two Thia-Analogous Indirubin N-Glycosides and Indirubin-3′-Monoxime in Plasma and Cell Culture Medium” (Molecules, 2022)
